# Earlier results, collected in US11191745B2, “Silica nanoparticle with an insoluble drug” (CITY OF HOPE, priority 2017, dated 2021).
# Tested on: plasma proteins
# Conditions: systemically administered
smiles,measurement,value
"CC(=O)O[C@H]1C(=O)[C@@]2(C)[C@H]([C@H](OC(=O)c3ccccc3)[C@]3(O)C[C@H](OC(=O)[C@H](O)[C@@H](NC(=O)c4ccccc4)c4ccccc4)C(C)=C1C3(C)C)[C@]1(OC(C)=O)CO[C@@H]1C[C@@H]2O [PTX, Paclitaxel]",drug bound to plasma proteins,more than 90%
